Literature values, collected in PMC11904481 (ESMO Open, 2025).
Several values for one entry are separate records, joined by “and”; a condition that tells them apart may be missing. Equal entries are not always repeated.

Tested on: patients
Details: cited from earlier work; for diarrhea / nausea: patients treated with oral ERK inhibitor
[1] = ocular TEAE, oral ERK inhibitor

Compound | retinopathy [1] [%] | diarrhea | nausea [%] | patients with dose reductions due to toxicity (phase I clinical trial, oral) [%] | blurred vision [1] [%] | oropharyngeal pain (oral ERK inhibitor) [%]
CC(C)Nc1cc(-c2c[nH]c(C(=O)N[C@H](CO)c3cccc(Cl)c3)c2)c(Cl)cn1 [ulixertinib] | 14 | > 40% and 48% | 42 | 32 | – | –
Cn1nccc1Nc1nccc(-c2cc3c(s2)C(C)(C)N(CCN2CCOCC2)C3=O)n1 [LY3214996] | – | – | – | – | 15 | –
Cc1cnc(NC2CCOCC2)nc1-n1cnc(C(=O)N[C@H](CN)c2cc(F)cc(Cl)c2)c1 [ASN007] | – | 30% | 30 | – | – | –
CS[C@@]1(C(=O)Nc2ccc3[nH]nc(-c4ccc(OC(C)C)nc4)c3c2)CCN(CC(=O)N2CC=C(c3ccc(-c4ncn(C)n4)cc3)CC2)C1 [MK-8353] | – | > 40% and 44% | 28 | – | 8 | 8
Cn1nccc1Nc1nccc(-c2ccn([C@H](CO)c3ccc(Cl)c(F)c3)c(=O)c2)n1 [GDC-0994, (S)-1-(1-(4-chloro-3-fluorophenyl)-2-hydroxyethyl)-4-(2-((1-methyl-1H-pyrazol-5-yl)amino)pyrimidin-4-yl)pyridin-2(1H)-one] | – | 49% | 32 | – | 13 | –
